According to the kinase profiling compilation of Christmann-Franck et al. (2016):

Assays:
Assay in all cases: KINOMEscan competition binding
Conditions in all cases: compound 0.5 µM
PIM2 (human) = PIM2 (human) (UniProt Q9P1W9)
TESK1 (human) = TESK1 (human) (UniProt Q15569)
CAMK2A (human) = CAMK2A (human) (UniProt Q9UQM7)
MAP2K2 (human) = MAP2K2 (human) (UniProt P36507)
RPS6KA1 KD1 (human) = RPS6KA1 KD1 (human) (UniProt Q15418)
BMPR2 (human) = BMPR2 (human) (UniProt Q13873)
PIM1 (human) = PIM1 (human) (UniProt P11309)
PDGFRA (human) = PDGFRA (human) (UniProt P16234)
DAPK1 (human) = DAPK1 (human) (UniProt P53355)
MAP2K1 (human) = MAP2K1 (human) (UniProt Q02750)
STK10 (human) = STK10 (human) (UniProt O94804)
STK3 (human) = STK3 (human) (UniProt Q13188)
PKMYT1 (human) = PKMYT1 (human) (UniProt Q99640)
STK17B (human) = STK17B (human) (UniProt O94768)
[1] = system: KIT (human), P10721 [D816H]
PAK3 (human) = PAK3 (human) (UniProt O75914)
NTRK1 (human) = NTRK1 (human) (UniProt P04629)
HIPK1 (human) = HIPK1 (human) (UniProt Q86Z02)
MYLK3 (human) = MYLK3 (human) (UniProt Q32MK0)
RPS6KA6 KD2 (human) = RPS6KA6 KD2 (human) (UniProt Q9UK32)
IRAK4 (human) = IRAK4 (human) (UniProt Q9NWZ3)
[2] = system: ABL1 (human), P00519 [Y253F]
PRPF4B (human) = PRPF4B (human) (UniProt Q13523)
MAPK11 (human) = MAPK11 (human) (UniProt Q15759)
PIK3CB (human) = PIK3CB (human) (UniProt P42338)
LATS1 (human) = LATS1 (human) (UniProt O95835)
EPHA3 (human) = EPHA3 (human) (UniProt P29320)
PTK2 (human) = PTK2 (human) (UniProt Q05397)
MAPKAPK5 (human) = MAPKAPK5 (human) (UniProt Q8IW41)
SBK1 (human) = SBK1 (human) (UniProt Q52WX2)
PRKCH (human) = PRKCH (human) (UniProt P24723)
PAK6 (human) = PAK6 (human) (UniProt Q9NQU5)
PDPK1 (human) = PDPK1 (human) (UniProt O15530)
CSNK1A1 (human) = CSNK1A1 (human) (UniProt P48729)
ACVRL1 (human) = ACVRL1 (human) (UniProt P37023)
LYN (human) = LYN (human) (UniProt P07948)
RIOK1 (human) = RIOK1 (human) (UniProt Q9BRS2)
MARK2 (human) = MARK2 (human) (UniProt Q7KZI7)
MST1R (human) = MST1R (human) (UniProt Q04912)
AURKA (human) = AURKA (human) (UniProt O14965)
CDK14 (human) = CDK14 (human) (UniProt O94921)
TNIK (human) = TNIK (human) (UniProt Q9UKE5)

Sequence of AURKA (human) (O14965 whole entry, looked up): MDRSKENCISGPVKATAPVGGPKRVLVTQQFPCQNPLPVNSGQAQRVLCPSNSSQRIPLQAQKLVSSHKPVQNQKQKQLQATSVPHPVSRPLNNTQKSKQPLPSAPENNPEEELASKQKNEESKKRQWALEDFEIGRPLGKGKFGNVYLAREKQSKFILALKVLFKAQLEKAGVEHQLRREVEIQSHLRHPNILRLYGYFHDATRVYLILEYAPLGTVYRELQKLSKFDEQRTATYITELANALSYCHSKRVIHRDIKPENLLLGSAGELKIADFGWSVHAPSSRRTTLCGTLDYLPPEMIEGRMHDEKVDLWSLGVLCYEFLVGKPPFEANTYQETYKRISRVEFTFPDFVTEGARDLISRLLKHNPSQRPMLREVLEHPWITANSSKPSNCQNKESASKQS
Sequence of PIM2 (human) (Q9P1W9 whole entry, looked up): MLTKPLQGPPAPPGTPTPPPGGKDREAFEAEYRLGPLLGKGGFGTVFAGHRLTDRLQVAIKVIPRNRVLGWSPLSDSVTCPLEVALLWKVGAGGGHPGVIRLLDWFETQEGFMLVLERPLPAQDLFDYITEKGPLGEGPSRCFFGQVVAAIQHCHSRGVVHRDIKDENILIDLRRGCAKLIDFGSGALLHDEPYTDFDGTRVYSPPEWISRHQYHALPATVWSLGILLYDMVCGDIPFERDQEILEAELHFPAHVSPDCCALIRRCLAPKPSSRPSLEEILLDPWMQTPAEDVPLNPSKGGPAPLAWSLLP
Sequence of RPS6KA1 KD1 (human) (Q15418 whole entry, looked up): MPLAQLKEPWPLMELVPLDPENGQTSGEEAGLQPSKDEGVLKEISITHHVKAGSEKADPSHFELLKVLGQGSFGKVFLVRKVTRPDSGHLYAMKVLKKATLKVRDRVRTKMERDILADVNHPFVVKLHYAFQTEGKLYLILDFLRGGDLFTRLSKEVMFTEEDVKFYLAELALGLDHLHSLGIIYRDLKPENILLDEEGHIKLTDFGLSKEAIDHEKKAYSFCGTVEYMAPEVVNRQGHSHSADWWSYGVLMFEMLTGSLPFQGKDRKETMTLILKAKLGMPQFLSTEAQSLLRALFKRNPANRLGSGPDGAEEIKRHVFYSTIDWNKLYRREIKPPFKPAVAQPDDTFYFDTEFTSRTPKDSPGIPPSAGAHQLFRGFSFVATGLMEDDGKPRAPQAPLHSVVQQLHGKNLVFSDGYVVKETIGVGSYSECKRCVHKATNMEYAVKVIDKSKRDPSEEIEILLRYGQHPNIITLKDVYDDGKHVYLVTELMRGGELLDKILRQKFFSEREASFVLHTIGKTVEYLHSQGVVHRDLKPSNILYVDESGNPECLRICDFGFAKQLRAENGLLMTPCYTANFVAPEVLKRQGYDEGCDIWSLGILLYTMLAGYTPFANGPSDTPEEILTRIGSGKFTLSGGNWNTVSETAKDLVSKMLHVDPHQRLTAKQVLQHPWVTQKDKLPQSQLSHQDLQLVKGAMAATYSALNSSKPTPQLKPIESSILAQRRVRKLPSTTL
Sequence of STK3 (human) (Q13188 whole entry, looked up): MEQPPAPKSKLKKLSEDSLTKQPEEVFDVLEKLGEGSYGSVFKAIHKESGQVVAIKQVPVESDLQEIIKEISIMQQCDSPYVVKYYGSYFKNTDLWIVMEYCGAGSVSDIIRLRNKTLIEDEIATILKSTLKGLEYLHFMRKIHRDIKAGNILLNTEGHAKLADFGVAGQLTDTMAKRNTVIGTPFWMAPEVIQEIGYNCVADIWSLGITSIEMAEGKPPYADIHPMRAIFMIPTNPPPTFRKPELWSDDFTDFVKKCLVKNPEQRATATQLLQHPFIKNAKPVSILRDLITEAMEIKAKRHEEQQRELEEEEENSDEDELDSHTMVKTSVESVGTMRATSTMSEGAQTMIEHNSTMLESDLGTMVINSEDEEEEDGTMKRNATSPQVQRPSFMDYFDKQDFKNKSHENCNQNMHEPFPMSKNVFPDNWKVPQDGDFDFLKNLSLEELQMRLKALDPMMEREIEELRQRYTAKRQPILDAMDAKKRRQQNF
Sequence of RIOK1 (human) (Q9BRS2 whole entry, looked up): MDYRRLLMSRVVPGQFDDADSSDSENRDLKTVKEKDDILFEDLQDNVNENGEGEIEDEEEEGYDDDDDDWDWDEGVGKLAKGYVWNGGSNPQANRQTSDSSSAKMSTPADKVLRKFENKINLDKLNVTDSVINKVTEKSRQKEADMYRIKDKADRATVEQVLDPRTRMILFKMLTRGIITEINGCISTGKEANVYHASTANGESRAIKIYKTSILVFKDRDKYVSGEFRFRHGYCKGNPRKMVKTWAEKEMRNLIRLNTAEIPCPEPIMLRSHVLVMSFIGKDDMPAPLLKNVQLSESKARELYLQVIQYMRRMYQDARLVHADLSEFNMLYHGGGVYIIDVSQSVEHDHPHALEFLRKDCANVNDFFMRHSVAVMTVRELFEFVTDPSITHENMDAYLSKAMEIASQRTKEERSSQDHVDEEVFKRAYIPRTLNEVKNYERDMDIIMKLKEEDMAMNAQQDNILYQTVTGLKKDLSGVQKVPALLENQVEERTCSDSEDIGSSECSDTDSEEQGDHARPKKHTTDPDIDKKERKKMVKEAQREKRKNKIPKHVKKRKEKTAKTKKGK
Sequence of STK10 (human) (O94804 whole entry, looked up): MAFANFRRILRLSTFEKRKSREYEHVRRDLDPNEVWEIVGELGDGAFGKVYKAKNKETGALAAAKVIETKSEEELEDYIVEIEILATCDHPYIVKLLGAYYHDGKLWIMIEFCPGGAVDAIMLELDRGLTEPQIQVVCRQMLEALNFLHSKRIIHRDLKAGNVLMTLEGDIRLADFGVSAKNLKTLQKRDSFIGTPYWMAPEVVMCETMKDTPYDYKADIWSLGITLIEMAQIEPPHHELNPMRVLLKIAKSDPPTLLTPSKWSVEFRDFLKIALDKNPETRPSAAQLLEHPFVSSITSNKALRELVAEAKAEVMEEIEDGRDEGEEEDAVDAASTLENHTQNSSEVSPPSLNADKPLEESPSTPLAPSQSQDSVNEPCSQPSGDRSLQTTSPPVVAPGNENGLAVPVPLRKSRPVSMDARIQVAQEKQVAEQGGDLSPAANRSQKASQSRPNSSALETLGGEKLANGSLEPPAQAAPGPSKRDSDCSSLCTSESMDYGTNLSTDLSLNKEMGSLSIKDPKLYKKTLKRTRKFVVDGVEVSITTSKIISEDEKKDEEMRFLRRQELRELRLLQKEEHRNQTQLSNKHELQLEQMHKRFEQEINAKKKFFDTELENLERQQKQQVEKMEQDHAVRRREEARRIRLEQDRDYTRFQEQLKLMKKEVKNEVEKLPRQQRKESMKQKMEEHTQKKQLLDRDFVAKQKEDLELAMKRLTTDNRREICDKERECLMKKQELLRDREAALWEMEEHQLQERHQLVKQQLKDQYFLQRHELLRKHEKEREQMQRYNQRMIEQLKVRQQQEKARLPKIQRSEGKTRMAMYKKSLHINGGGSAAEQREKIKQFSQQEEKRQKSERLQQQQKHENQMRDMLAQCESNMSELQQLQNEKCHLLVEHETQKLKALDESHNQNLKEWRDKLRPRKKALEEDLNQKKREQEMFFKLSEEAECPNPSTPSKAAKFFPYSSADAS
Sequence of HIPK1 (human) (Q86Z02 whole entry, looked up): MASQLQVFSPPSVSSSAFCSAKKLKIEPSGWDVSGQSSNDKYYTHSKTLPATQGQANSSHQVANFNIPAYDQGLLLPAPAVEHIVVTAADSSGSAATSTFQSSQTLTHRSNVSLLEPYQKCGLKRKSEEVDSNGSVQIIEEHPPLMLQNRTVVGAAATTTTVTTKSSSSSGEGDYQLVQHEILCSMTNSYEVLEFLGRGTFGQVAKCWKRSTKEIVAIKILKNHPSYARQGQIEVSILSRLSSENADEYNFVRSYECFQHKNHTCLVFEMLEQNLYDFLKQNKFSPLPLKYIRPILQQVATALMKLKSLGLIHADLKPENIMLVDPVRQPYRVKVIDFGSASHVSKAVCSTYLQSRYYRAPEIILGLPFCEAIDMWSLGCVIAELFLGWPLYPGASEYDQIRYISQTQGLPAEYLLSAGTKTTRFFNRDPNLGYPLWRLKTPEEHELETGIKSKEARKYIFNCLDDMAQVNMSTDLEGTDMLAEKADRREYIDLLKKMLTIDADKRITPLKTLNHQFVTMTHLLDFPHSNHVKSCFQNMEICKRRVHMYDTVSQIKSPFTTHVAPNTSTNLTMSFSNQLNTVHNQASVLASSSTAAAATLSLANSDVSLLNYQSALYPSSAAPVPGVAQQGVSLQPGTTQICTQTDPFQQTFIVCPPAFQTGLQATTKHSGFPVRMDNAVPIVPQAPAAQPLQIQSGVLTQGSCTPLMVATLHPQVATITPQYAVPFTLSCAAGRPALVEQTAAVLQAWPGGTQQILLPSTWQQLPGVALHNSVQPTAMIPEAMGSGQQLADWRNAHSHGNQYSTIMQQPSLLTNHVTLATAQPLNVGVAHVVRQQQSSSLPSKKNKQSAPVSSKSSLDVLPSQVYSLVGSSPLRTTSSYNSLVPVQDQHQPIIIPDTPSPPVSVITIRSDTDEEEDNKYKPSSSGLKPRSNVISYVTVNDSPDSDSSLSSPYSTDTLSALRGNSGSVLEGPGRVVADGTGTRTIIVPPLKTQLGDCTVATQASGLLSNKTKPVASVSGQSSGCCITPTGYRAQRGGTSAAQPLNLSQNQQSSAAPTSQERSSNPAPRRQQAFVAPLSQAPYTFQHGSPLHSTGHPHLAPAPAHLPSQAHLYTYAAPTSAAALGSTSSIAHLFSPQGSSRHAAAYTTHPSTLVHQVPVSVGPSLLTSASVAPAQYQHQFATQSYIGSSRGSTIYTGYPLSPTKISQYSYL
Sequence of CSNK1A1 (human) (P48729 whole entry, looked up): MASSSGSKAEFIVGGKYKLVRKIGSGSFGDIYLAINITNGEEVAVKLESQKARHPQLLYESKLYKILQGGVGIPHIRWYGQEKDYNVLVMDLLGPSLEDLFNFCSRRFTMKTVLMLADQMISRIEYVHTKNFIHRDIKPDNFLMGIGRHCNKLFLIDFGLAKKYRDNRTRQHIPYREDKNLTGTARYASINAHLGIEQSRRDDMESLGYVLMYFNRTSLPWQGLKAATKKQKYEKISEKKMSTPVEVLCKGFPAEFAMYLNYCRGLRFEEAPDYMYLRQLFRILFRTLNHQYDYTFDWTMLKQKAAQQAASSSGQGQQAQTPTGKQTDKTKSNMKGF

Compound Cn1c2ccccc2c2c3c(c4c5ccccc5n(CCC#N)c4c21)CNC3=O has a kinase still bound, per cent of control (PIM2 (human)) of 100%, a kinase still bound, per cent of control (TESK1 (human)) of 43% and a kinase still bound, per cent of control (CAMK2A (human)) of 27%. The kinase still bound, per cent of control (MAP2K2 (human)) was 61%, the kinase still bound, per cent of control (RPS6KA1 KD1 (human)) was 36% and the kinase still bound, per cent of control (BMPR2 (human)) was 100%. For the same compound, the kinase still bound, per cent of control (PIM1 (human)) was 32%, the kinase still bound, per cent of control (PDGFRA (human)) was 100% and the kinase still bound, per cent of control (DAPK1 (human)) was 78%. The kinase still bound, per cent of control (MAP2K1 (human)) was 71%, the kinase still bound, per cent of control (STK10 (human)) was 28% and the kinase still bound, per cent of control (STK3 (human)) was 0.8%. It also gave a kinase still bound, per cent of control (PKMYT1 (human)) of 100%, a kinase still bound, per cent of control (STK17B (human)) of 100% and a kinase still bound, per cent of control [1] of 30%. For the same compound, the kinase still bound, per cent of control (PAK3 (human)) was 70%, the kinase still bound, per cent of control (NTRK1 (human)) was 0.1% and the kinase still bound, per cent of control (HIPK1 (human)) was 32%. It also gave a kinase still bound, per cent of control (MYLK3 (human)) of 100%, a kinase still bound, per cent of control (RPS6KA6 KD2 (human)) of 100% and a kinase still bound, per cent of control (IRAK4 (human)) of 0.2%. For the same compound, the kinase still bound, per cent of control [2] was 100%, the kinase still bound, per cent of control (PRPF4B (human)) was 12% and the kinase still bound, per cent of control (MAPK11 (human)) was 97%. It also gave a kinase still bound, per cent of control (PIK3CB (human)) of 88%, a kinase still bound, per cent of control (LATS1 (human)) of 31% and a kinase still bound, per cent of control (EPHA3 (human)) of 53%. It also gave a kinase still bound, per cent of control (PTK2 (human)) of 73%, a kinase still bound, per cent of control (MAPKAPK5 (human)) of 100% and a kinase still bound, per cent of control (SBK1 (human)) of 82%. For the same compound, the kinase still bound, per cent of control (PRKCH (human)) was 18%, the kinase still bound, per cent of control (PAK6 (human)) was 1.4% and the kinase still bound, per cent of control (PDPK1 (human)) was 41%. The kinase still bound, per cent of control (CSNK1A1 (human)) was 100%, the kinase still bound, per cent of control (ACVRL1 (human)) was 100% and the kinase still bound, per cent of control (LYN (human)) was 100%. For the same compound, the kinase still bound, per cent of control (RIOK1 (human)) was 0.6%, the kinase still bound, per cent of control (MARK2 (human)) was 9.8% and the kinase still bound, per cent of control (MST1R (human)) was 100%. For the same compound, the kinase still bound, per cent of control (AURKA (human)) was 74%, the kinase still bound, per cent of control (CDK14 (human)) was 100% and the kinase still bound, per cent of control (TNIK (human)) was 0.3%.
